Series [1] has as its system Galleria mellonella. In words: Toxicity in insect model Galleria mellonella. Type of series: in vivo. The conditions noted are these: 64 mg kg^−1, larvae, 120 h. The procedure: Based on the excellent antibacterial effect of Ru-3 in vitro, its biosafety was further evaluated. Firstly, the hemolytic activity of ruthenium complexes on rabbit red blood cells was measured to study their toxicity. […] In view of its good compatibility with mammalian red blood cells, the toxicity of Ru-3 to eukaryotes was also studied. Herein, Ru-3 was tested with Gallery melonella larvae. […] When the concentration of Ru-3 was 64 mg kg^−1, the survival rate was still 75%.
FIGURE 15 Test results of Ru compounds toxicity (A) % hemolysis at 256 μg ml^−1 of Ru compounds. (B) Kaplan-Meier survival curves. […] The larvae were incubated at 37.5°C and live/dead scores were conducted at 120 h (C) H&E staining images of the infected tissues with different treatments.

Series [2] concerns Staphylococcus aureus. In words: Drug resistance study, 20 generations at sub inhibitory concentration. Type of series: cell-based. The procedure: After Staphylococcus aureus was cultured for 5 h, the bacteria were diluted 1000 times with fresh TSB and the MIC of Ru-3 was measured. The bacterial solution grown at the sub inhibitory concentration of compound Ru-3 was inoculated into fresh TSB medium for 5 h, then the MIC was measured, and the above procedure was repeated for 20 generations. Ampicillin was used as the control.

The test system of series [3] is Staphylococcus aureus. In words: Nucleic acid leakage, 260 nm absorbing material. The format is cell-based. The conditions noted are these: 4 μg/ml, 2 h. The procedure:
To verify the membrane damage, the loss of 260 nm absorbing material was carried out ([Yu et al., 2021]). Briefly, overnight cultured bacteria were diluted 1:1000 in fresh TSB and shaken at 37°C for about 5 h until the exponential stage was reached. The supernatant was removed by centrifugation, then the bacteria were resuspended to OD600 = 1 with PBS, which was further treated with Ru-3 or polymyxin B and centrifuged after 2 h to precipitate bacterial cells. Subsequently, the loss of 260 nm absorbing material, including the release of DNA and RNA in the filtrate, was measured at 260 nm.

In series [4] the test system is Staphylococcus aureus in biofilm. In words: Killing bacteria in established biofilm. The format is cell-based. The conditions noted are these: 32 μg ml^−1; initial 8.62. The procedure:
To establish bacterial biofilm, the overnight cultured Staphylococcus aureus strain was diluted 1000 times with fresh TSB medium, then the bacterial suspension was transferred to 96 well plate and cultured for 24 h. Subsequently, the supernatant was removed and the formed biofilm was washed 3 times with PBS solution. 200 μL solution containing Ru-3 of different concentrations (512, 256, 128, 64, 32, 16, 8, 4 μg ml^−1) were added and further incubated at 37°C for 24 h. Biofilm without Ru-3 were used as positive controls. Then the supernatant was discarded and the residual biofilm was cleaned using 200 μL PBS 3 times. Next, fresh medium was added to culture for 24 h ([Yang et al., 2021]). The solution after culture was diluted 1000 times and 100 μL was taken out for plate coating and counting.

The test system of series [5] is Staphylococcus aureus. In words: MBC determined by LB plates. The format is cell-based. Particulars: S. aureus, 24 h. The procedure:
Antibacterial activity was evaluated by measuring MIC (minimum inhibitory concentration) and MBC (minimum bactericidal concentration) values. The MIC value was measured by the microdilution method using TSB broth with 96 well plates ([Carlsen et al., 1981]) and the MBC value was determined by LB plates. In brief, the overnight cultured bacteria were 1: 1000 diluted with fresh medium to get a bacterial suspension. After incubation at 37°C for 20 h, the growth of bacteria is monitored by observing the turbidity of the culture. The bacterial solution was diluted as above method and the complexes were incubated with bacterial solution for 2 h. Then 100 μL bacterial solution was taken for plate coating. The Staphylococcus aureus growth inhibition trend in the presence of complexes was obtained. The MBC values of complexes were determined by LB plates after culturing in the same method for 24 h. All experiments were controlled with sterile water and repeated in parallel at least three times.

One may read the MBC as the lowest tested concentration that kills the bacteria rather than only halting them. A low value points to more potent killing. [Ru(dmb)2PMA] (PF6)2 [Ru-3] gave a survival rate in series [1] of 75%. In addition, in series [2] (20 passages at sublethal concentration), the “increase of MIC value after 20 generations” value is recorded as “four”. For the same substance, the “MIC values against antibiotic resistant S. aureus” value in series [2] (ampicillin, polymyxin B, tetracycline, clindamycin resistant S. aureus obtained after 20 generations) is given as “almost the same as the wild type”. Besides, the “Δ% Nucleic acid leakage” value in series [3] is given as 20%. Further, the “number of the survival Staphylococcus aureus in the biofilm” value in series [4] is given as 0 log10 colony-forming units per milliliter (CFU/ml). In addition, the minimum bactericidal concentration (MBC) in series [5] was 32 µg/mL.

The values are drawn from article PMC9589286, “Ruthenium polypyridine complexes with triphenylamine groups as antibacterial agents against Staphylococcus aureus with membrane-disruptive mechanism” (Frontiers in Chemistry, 2022).
